Results as given in the supplement of paper PMC11208160.

Assay: recombinant UMI read abundance after kanamycin selection (control-corrected) (log10(CPM+1)); higher = more efficient recombination; extreme values may be limits of the assay; sequences stand for … in AGTGCAGAGAAAATCGGCCAGTTTTCTCTGCCTGCAGTCCGCATGCCGTGGGACCCCTTGGGTTCTAACCTGTTGCCTAGATTTATGCAGCGGACTGCCTTTCTCCCAAAGTGATAAACCGG…AGGTTGGTTTCACT; site = the 11-nt donor
Outline: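 Values are reported as log10(CPM+1), obtained by converting sequencing counts to CPM, averaging replicates and scaling by control-derived factors. The counts came from recombinant UMIs amplified by PCR across the donor–target junction. These UMIs came from a pooled Escherichia coli screen of donor and donor-binding-loop pairs for the IS621 bridge recombinase, plated with IPTG (0.07 mM) plus kanamycin or left unselected, in two replicates each.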
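Further: IS621 bridge recombinase in Escherichia coli cells against a fixed T5 target plasmid.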

Row | Sequence | recombinant UMI read abundance (log10)
1 | TCAGAGACATGGACCGGTTTTCCCGGTAATCCGTATTTGCG (site TCAGTGACTCG) | 0.0233
2 | TCAGAGACATGGACCGGTTTTCCCGGTAATCCGTATTTGCG (site TCATAGACTCG) | 0.524
3 | TCAGAGACATGGACCGGTTTTCCCGGTAATCCGTATTTGCG (site TCCGAGACTCG) | 0.462
4 | TCAGAGACATGGACCGGTTTTCCCGGTAATCCGTATTTGCG (site TCGGAGACTCG) | 0.836
5 | TCAGAGACATGGACCGGTTTTCCCGGTAATCCGTATTTGCG (site TCTGAGACTCG) | 0.346
6 | TCAGAGACATGGACCGGTTTTCCCGGTAATCCGTATTTGCG (site TGAGAGACTCG) | 0.498
7 | TCAGAGACATGGACCGGTTTTCCCGGTAATCCGTATTTGCG (site TTAGAGACTCG) | 1.56
8 | TCAGAGGCATGGACCGGTTTTCCCGGTAATCCGTATTTGCG (site TCAGAGACTCG) | 0.431
9 | TCAGAGGCATGGACCGGTTTTCCCGGTAATCCGTATTTGCG (site TCAGAGCCTCG) | 0.0967
10 | TCAGAGGCATGGACCGGTTTTCCCGGTAATCCGTATTTGCG (site TCAGAGGCTCG) | 1.26
11 | TCAGAGGCATGGACCGGTTTTCCCGGTAATCCGTATTTGCG (site TCAGAGTCTCG) | 2.18
12 | TCAGGTACATGGACCGGTTTTCCCGGTAATCCGTATTTGCA (site TCAGGTACTTG) | 2.02
13 | TCAGGTGCATGGACCGGTTTTCCCGGTAATCCGTATTTGAT (site ACAGGTGCTAT) | 0
14 | TCAGGTGCATGGACCGGTTTTCCCGGTAATCCGTATTTGAT (site CCAGGTGCTAT) | 1.06
15 | TCAGGTGCATGGACCGGTTTTCCCGGTAATCCGTATTTGAT (site GCAGGTGCTAT) | 0.018
16 | TCAGGTGCATGGACCGGTTTTCCCGGTAATCCGTATTTGAT (site TCAGGTGCTAT) | 1.74
17 | TCAGGTTCATGGACCGGTTTTCCCGGTAATCCGTATTTGGA (site TCAGGTTCTTC) | 2.16
18 | TCAGTATCATGGACCGGTTTTCCCGGTAATCCGTATTTGCA (site ACAGTATCTTG) | 1.93
19 | TCAGTATCATGGACCGGTTTTCCCGGTAATCCGTATTTGCA (site CCAGTATCTTG) | 2.06
20 | TCAGTATCATGGACCGGTTTTCCCGGTAATCCGTATTTGCA (site GCAGTATCTTG) | 0.463
21 | TCAGTATCATGGACCGGTTTTCCCGGTAATCCGTATTTGCA (site TCAGTATCTTG) | 2.23
22 | TCAGTATCATGGACCGGTTTTCCCGGTAATCCGTATTTGTA (site ACAGTATCTTG) | 0.377
23 | TCAGTATCATGGACCGGTTTTCCCGGTAATCCGTATTTGTA (site TCAGTATCTTA) | 2.5
24 | TCAGTCACATGGACCGGTTTTCCCGGTAATCCGTATTTGAG (site TCAGTCACTCT) | 0.702
25 | TCAGTGACATGGACCGGTTTTCCCGGTAATCCGTATTTGCG (site TCAGAGACTCG) | 0.0602

Row | Sequence | recombinant UMI read abundance (log10)
26 | TCAGTGACATGGACCGGTTTTCCCGGTAATCCGTATTTGCG (site TCAGCGACTCG) | 0.00331
27 | TCAGTGACATGGACCGGTTTTCCCGGTAATCCGTATTTGCG (site TCAGGGACTCG) | 0.00386
28 | TCAGTGACATGGACCGGTTTTCCCGGTAATCCGTATTTGCG (site TCAGTGACTCG) | 1.21
29 | TCATACTCATGGACCGGTTTTCCCGGTAATCCGTATTTGCG (site TCATACTCTAG) | 0
30 | TCATACTCATGGACCGGTTTTCCCGGTAATCCGTATTTGCG (site TCATACTCTCG) | 2.57
31 | TCATACTCATGGACCGGTTTTCCCGGTAATCCGTATTTGCG (site TCATACTCTGG) | 0.0107
32 | TCATACTCATGGACCGGTTTTCCCGGTAATCCGTATTTGCG (site TCATACTCTTG) | 2.1
33 | TCATAGGCATGGACCGGTTTTCCCGGTAATCCGTATTTGAG (site TCATAGGCTCT) | 1.46
34 | TCATCTTCATGGACCGGTTTTCCCGGTAATCCGTATTTGGT (site TCATCTTCTAC) | 0.467
35 | TCATGACCATGGACCGGTTTTCCCGGTAATCCGTATTTGCC (site TCATGACCTGG) | 0
36 | TCATGACCATGGACCGGTTTTCCCGGTAATCCGTATTTGCG (site TCATGACCTCG) | 0.00794
37 | TCATGAGCATGGACCGGTTTTCCCGGTAATCCGTATTTGGG (site TAATGAGCTCC) | 0.0178
38 | TCATGAGCATGGACCGGTTTTCCCGGTAATCCGTATTTGGG (site TCATGAGCTCC) | 0.0121
39 | TCATGAGCATGGACCGGTTTTCCCGGTAATCCGTATTTGGG (site TGATGAGCTCC) | 0.00797
40 | TCATGAGCATGGACCGGTTTTCCCGGTAATCCGTATTTGGG (site TTATGAGCTCC) | 0.00944
41 | TCATGTCCATGGACCGGTTTTCCCGGTAATCCGTATTTGTG (site TCATGTCCTCA) | 0
42 | TCATTCTCATGGACCGGTTTTCCCGGTAATCCGTATTTGCA (site TCATACTCTTG) | 1.25
43 | TCATTCTCATGGACCGGTTTTCCCGGTAATCCGTATTTGCA (site TCATCCTCTTG) | 0
44 | TCATTCTCATGGACCGGTTTTCCCGGTAATCCGTATTTGCA (site TCATGCTCTTG) | 0.00845
45 | TCATTCTCATGGACCGGTTTTCCCGGTAATCCGTATTTGCA (site TCATTCTCTTG) | 1.41
46 | TCCAAAGCATGGACCGGTTTTCCCGGTAATCCGTATTTGGA (site TCCAAAGCTTC) | 0.0225
47 | TCCAAGTCATGGACCGGTTTTCCCGGTAATCCGTATTTGCC (site TCCAAATCTGG) | 0
48 | TCCAAGTCATGGACCGGTTTTCCCGGTAATCCGTATTTGCC (site TCCAACTCTGG) | 0
49 | TCCAAGTCATGGACCGGTTTTCCCGGTAATCCGTATTTGCC (site TCCAAGTCTGG) | 0
50 | TCCAAGTCATGGACCGGTTTTCCCGGTAATCCGTATTTGCC (site TCCAATTCTGG) | 0

Row | Sequence | recombinant UMI read abundance (log10)
51 | TCCAATTCATGGACCGGTTTTCCCGGTAATCCGTATTTGAC (site TCCAATTCTGA) | 0
52 | TCCAATTCATGGACCGGTTTTCCCGGTAATCCGTATTTGAC (site TCCAATTCTGC) | 0
53 | TCCAATTCATGGACCGGTTTTCCCGGTAATCCGTATTTGAC (site TCCAATTCTGG) | 0
54 | TCCAATTCATGGACCGGTTTTCCCGGTAATCCGTATTTGAC (site TCCAATTCTGT) | 0
55 | TCCAATTCATGGACCGGTTTTCCCGGTAATCCGTATTTGCT (site TCCAATTCTAG) | 0
56 | TCCAATTCATGGACCGGTTTTCCCGGTAATCCGTATTTGCT (site TCCAATTCTCG) | 0
57 | TCCAATTCATGGACCGGTTTTCCCGGTAATCCGTATTTGCT (site TCCAATTCTGG) | 0
58 | TCCAATTCATGGACCGGTTTTCCCGGTAATCCGTATTTGCT (site TCCAATTCTTG) | 0
59 | TCCACCGCATGGACCGGTTTTCCCGGTAATCCGTATTTGGG (site TCCACCGCTCA) | 0.0369
60 | TCCACCGCATGGACCGGTTTTCCCGGTAATCCGTATTTGGG (site TCCACCGCTCC) | 0.00928
61 | TCCACCGCATGGACCGGTTTTCCCGGTAATCCGTATTTGGG (site TCCACCGCTCG) | 0.0231
62 | TCCACCGCATGGACCGGTTTTCCCGGTAATCCGTATTTGGG (site TCCACCGCTCT) | 0.0189
63 | TCCATCGCATGGACCGGTTTTCCCGGTAATCCGTATTTGCG (site TCCAACGCTCG) | 0
64 | TCCATCGCATGGACCGGTTTTCCCGGTAATCCGTATTTGCG (site TCCACCGCTCG) | 0.0339
65 | TCCATCGCATGGACCGGTTTTCCCGGTAATCCGTATTTGCG (site TCCAGCGCTCG) | 0.047
66 | TCCATCGCATGGACCGGTTTTCCCGGTAATCCGTATTTGCG (site TCCATCGCTCG) | 0.00801
67 | TCCCAATCATGGACCGGTTTTCCCGGTAATCCGTATTTGTT (site TCCCAATCTAA) | 0.00639
68 | TCCCACCCATGGACCGGTTTTCCCGGTAATCCGTATTTGCA (site TCCCACCCTTG) | 0
69 | TCCCATACATGGACCGGTTTTCCCGGTAATCCGTATTTGGC (site TCCCATACTGC) | 0
70 | TCCCCCGCATGGACCGGTTTTCCCGGTAATCCGTATTTGCG (site TCCACCGCTCG) | 0.00501
71 | TCCCCCGCATGGACCGGTTTTCCCGGTAATCCGTATTTGCG (site TCCCCCGCTCG) | 0.0127
72 | TCCCCCGCATGGACCGGTTTTCCCGGTAATCCGTATTTGCG (site TCCGCCGCTCG) | 0.0064
73 | TCCCCCGCATGGACCGGTTTTCCCGGTAATCCGTATTTGCG (site TCCTCCGCTCG) | 0.00786
74 | TCCCCTACATGGACCGGTTTTCCCGGTAATCCGTATTTGCC (site TCCCCTACTGG) | 0
75 | TCCCTTACATGGACCGGTTTTCCCGGTAATCCGTATTTGTA (site TCCCTTACTTA) | 0.0182
